The text below walks through data of patent US8071353B2, “Genetic remodeling in Bifidobacterium” (Nestec S.A., priority 2007, dated 2011).

The structures appear in SMILES notation. Values after ≈ are worked out from the molar mass of the structure shown.

In general, MIC refers to the lowest concentration found to suppress growth.

Experiment [1] deals with B. animalis subsp. lactis wild-type strain NCC 2818. The experiment in a line: E-TEST (AB BIODISK) tetracycline MIC determination, wild-type strain. The class given is cell-based, Bifidobacterium animalis subsp. lactis. To be noted: Bifidobacterium animalis, strain NCC 2818 (wild-type, operable tetW). The text has this:
(§1) In certain embodiments, the wild-type cell is resistant to a higher concentration of the antibiotic than the cell of the invention, i.e. the cell with the deleted gene. Sensitivity of a microbial cell to a particular antibiotic may be measured in any of a variety of manners. One convenient means for measuring antibiotic sensitivity to use disk diffusion assays, for example the E-test (commercially produced by AB BIODISK). The E-test system uses a predefined gradient of antibiotic concentrations on a plastic strip and can be used to determine the exact Minimum Inhibitory Concentration (MIC) of an antibiotic for a particular organism.
(§2) In certain embodiments, the wild-type cell is resistant to a higher concentration of the antibiotic than the cell that results from the methods provided. Disk diffusion assays and related sensitivity tests such as the E-test (AB BIODISK) are preferred ways of measuring the sensitivity of a cell to an antibiotic. The Minimum Inhibitory Concentration (MIC), however determined, of an antibiotic for a particular organism is a convenient way to compare relative sensitivities.
(§3) A commercial E-TEST (AB BIODISK) was used to determine the MIC for tetracycline of each strain.

The test system of experiment [2] is B. animalis subsp. lactis strain NCC 9034 (tetW deleted). Nature of the experiment: E-TEST (AB BIODISK) tetracycline MIC determination, tetW deletion strain. The class given is cell-based, Bifidobacterium animalis subsp. lactis.
Source text: as §1, §2, §3

Experiment [3] concerns Bifidobacterium animalis subsp. lactis strain NCC 362 (wild-type). Nature of the experiment: E-TEST tetracycline MIC determination, FIG. 3 legend wild-type strain. The class given is cell-based. To be noted: FIG. 3 left panel, read-out: Resistance to tetracycline (MIC).
Source text: as §1, §3

For the compound `CN(C)[C@@H]1C(O)=C(C(N)=O)C(=O)[C@@]2(O)C(O)=C3C(=O)c4c(O)cccc4[C@@](C)(O)[C@H]3C[C@@H]12` [tetracycline], the minimal inhibitory concentration (MIC) was 16 µg/mL (≈ 36 µM) in experiment [1]; approximately 0.3 µg/mL (≈ 0.675 µM) in experiment [2] (Bifidobacterium animalis, read-out: MIC for tetracycline); approximately 16 µg/mL (≈ 36 µM) in experiment [3]. In experiment [2] (NCC 9034 versus NCC 2818, ratio of E-TEST MICs), the “times more sensitive to tetracycline than parent wild-type strain NCC 2818” value is on record as “about 50 times”.
